Assay results from patent US20240043439A1, “COMPOUNDS AS C5AR INHIBITORS” (Kira Pharmaceuticals (Suzhou) Ltd., priority 2020, published 2024).

Tests used:
[1] = biological target: human C5a receptor (C5aR) (Homo sapiens (Human), UniProt P21730); experiment: Inhibition of C5a-C5aR binding (biotinylated human C5a, U937/C5aR cells, FACS)
In short: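 U937 cells stably expressing human C5aR, 3×10^6 cells/ml in PBS+0.1% BSA, were co-incubated with compound and biotinylated human C5a (30 nM, working solution) on ice for 120 min. Bound ligand was stained with FITC-streptavidin for 30 min on ice and read by flow cytometry.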

[2] = biological target: T1, C5aR (Homo sapiens (Human), UniProt P21730); experiment: Inhibition of C5a-C5aR binding determined by cell migration assay (U937/C5aR cells); type: cell-based; settings: U937/C5aR cell migration towards human C5a, 180 min
Description: Migration assay was performed by using polycarbonate membrane with 3.0 µm pore (Corning). U937/C5aR cells were collected and washed twice by PBS; cells were suspended in Hank's balanced salt solution (HBSS)+1% FBS buffer at the density of 6×10^6 cells/ml. Cells were premixed with compound and added to insert well, ligand human C5a and compound were added to bottom well in order, gently mix, incubate for 30 min at 37° C., […]. Put insert plate into bottom well, migrate for 180 min at 37° C., […]. Gently remove the insert well, add 50 μl CellTiter-Glo (Promega), gently shaking for 5 min at room temperature, transfer 150 μl mixture to black plate and read luminescence intensity by
microplate reader (BioTek).

[3] = biological target: T1, C5aR; experiment: Calcium mobilization (U937/C5aR or HEK293/C5aR cells, FLIPR); type: cell-based; settings: agonist human C5a at EC80, FLIPR
In short: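 U937 or HEK293 cells expressing human C5aR, plated overnight, then preincubated 60 min with compound. After Fluo-4 Direct dye loading (50 min at 37 °C, 10 min at room temperature), intracellular calcium rise on FLIPR was triggered by human C5a agonist at EC80.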

[4] = tested on: human C5a (hC5a) induced neutropenia; experiment: C5a induced neutropenia in a cynomolgus model; type: in vivo; settings: cynomolgus monkey, pre-dosed 4 hours before hC5a, compared to vehicle
Description: To study the efficacy of compounds in a non-human primate model, human C5a (hC5a) induced neutropenia is studied in a cynomolgus model. Intravenous injection of hC5a induced upregulation of adhesion molecules on blood vessel walls, leading to decreased neutrophils in the blood stream and attached to the vascular walls. Monkeys were pre-dosed with vehicle or specific compound, and 4 hours later, hC5a ([…], ACROBiosystems) was administrated and 1 minute later neutrophils are quantified in peripheral blood.
The percent change in the number of neutrophils in the blood collected after C5a injection (241 min) was calculated relative to the sample collected prior to C5a injection (239 min). The plasma concentration of each compound was calculated as the average concentration prior to C5a injection of 2 individual monkeys.

[5] = tested on: C5a induced CD11b upregulation on granulocytes; experiment: Neutrophil CD11b FACS assay, cyno monkey whole blood after oral pre-dosing; type: in vivo; settings: oral pre-dosing at 10 mg/kg
Description: (§1) Peripheral blood samples were collected from Cynomolgus monkey/huC5aR knock-in mice at indicated timepoints. 100 μl aliquots were mixed with a range of C5a concentrations and incubated at 37° C. for 30 min. Blood was cooled down on wet ice for at least 3 min, anti-CD11b monoclonal antibody (BD Biosciences) was added and incubated at 4° C. for 60 min. Red blood cells were lysed by adding erythrocyte lysis buffer (Solarbio) and incubated on ice for 10 min, white blood cells were washed by pre-cold PBS twice and suspended by 2% PFA/PBS buffer. Neutrophils were classified with flow cytometry by their forward/side-scatter properties and mean fluorescence intensity of anti-CD11b staining on cells was read by FACS (Beckman).
The percent of CD11b signal was calculated by the formula %=(MFI[C5a conc.]-MFI[C5a=0])/(MFI[max]-MFI[C5a=0])×100%. Each data point was the average of 2 individual monkeys. The plasma concentration of each compound is the average concentration prior to C5a injection of 2 individual monkeys.

[6] = tested on: C5a induced CD11b upregulation on neutrophil; experiment: Neutrophil CD11b FACS assay, human C5aR knock-in mice whole blood after oral pre-dosing; type: in vivo; settings: oral pre-dosing 0.3 mg/kg and 3 mg/kg, 2 hours after dosing
Description: as §1
(§2) Whole blood was collected at indicated timepoints (2 hours or 12 hours after dosing compound) and further stimulated with human C5a in vitro. CD11b FACS antibody was added and incubate for 60 min at 4 C before red blood cells were lysed. The percent of CD11b signal was calculated by the formula %=(MFI[C5a conc.]-MFI[C5a=0])/(MFI[max]-MFI[C5a=0])×100%. Each data point was the average SD of 3 individual mice.
as §2, with “2 hrs” for “indicated timepoints (2 hours or 12 hours”, “compound” for “compound)”, “average” for “average SD”, “2” for “3”
as §2, with “2 hrs” for “indicated timepoints (2 hours or 12 hours”, “compound” for “compound)”, “average±SD” for “average SD”, “2” for “3”

Sequence of human C5a receptor (C5aR) (P21730 whole entry): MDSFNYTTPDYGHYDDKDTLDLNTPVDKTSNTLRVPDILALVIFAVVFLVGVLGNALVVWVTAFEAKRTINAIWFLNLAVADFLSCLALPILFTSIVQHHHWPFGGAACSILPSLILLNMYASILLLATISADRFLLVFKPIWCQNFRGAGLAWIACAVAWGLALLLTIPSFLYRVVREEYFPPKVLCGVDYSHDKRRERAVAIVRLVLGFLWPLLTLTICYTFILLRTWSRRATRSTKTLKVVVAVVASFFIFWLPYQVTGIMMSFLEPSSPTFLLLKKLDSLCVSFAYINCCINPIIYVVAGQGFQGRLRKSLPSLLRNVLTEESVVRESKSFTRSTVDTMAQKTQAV
T1 sequence (P21730 whole entry): as above

## Cc1ccc(NC(=O)[C@H]2C[C@H]3CCC[C@H]3N(C(=O)c3c(C)cccc3F)[C@H]2c2ccc(NC3CCCC3)cc2)cc1C(F)(F)F [Compound 47, (2R,3S,4aR,7aR)-2-(4-(cyclopentylamino)phenyl)-1-(2-fluoro-6-methylbenzoyl)-N-(4-methyl-3-(trifluoromethyl)phenyl)octahydro-1H-cyclopenta[b]pyridine-3-carboxamide]
[1]
  IC50: 50 to 500 nM
[2]
  IC50: < 50 nM
[3]
  IC50: < 50 nM
[4]
  rescue of neutropenia induced by human C5a: effectively rescued the neutropenia
[5]; Macaca fascicularis, Neutrophil, read-out: EC50 (C5a induced CD11b upregulation on granulocytes ex-vivo)
  EC50 at 10 mg/kg: 276 nM
[5]
  C5a induced CD11b upregulation on granulocytes ex-vivo: blocked
[6]
  CD11b upregulation on neutrophil: blocked

## Cc1cccc(F)c1C(=O)N1[C@@H]2CCC[C@@H]2C[C@H](C(=O)Nc2cnn(C)c2)[C@@H]1c1ccc(NC2CCCC2)cc1 [Compound 54, (2R,3S,4aR,7aR)-2-(4-(cyclopentylamino)phenyl)-1-(2-fluoro-6-methylbenzoyl)-N-(1-methyl-1H-pyrazol-4-yl)octahydro-1H-cyclopenta[b]pyridine-3-carboxamide]
[1]
  IC50: 50 to 500 nM
[2]
  IC50: 50 to 500 nM
[3]
  IC50: 2000 to 10000 nM

## Cc1cccc(F)c1C(=O)N1[C@@H]2CCC[C@@H]2C[C@H](C(=O)Nc2ccc3c(cnn3C)c2)[C@@H]1c1ccc(NC2CCOCC2)cc1 [Compound 89, (2R,3S,4aR,7aR)-1-(2-fluoro-6-methylbenzoyl)-N-(1-methyl-1H-indazol-5-yl)-2-(4-((tetrahydro-2H-pyran-4-yl)amino)phenyl)octahydro-1H-cyclopenta[b]pyridine-3-carboxamide]
[1]
  IC50: < 50 nM
[2]
  IC50: < 50 nM
[3]
  IC50: 500 to 2000 nM
[6]
  CD11b upregulation on neutrophil: blocked

## Cc1cccc(F)c1C(=O)N1[C@@H]2CCC[C@@H]2C[C@H](C(=O)Nc2ccc(N(C)C)cc2)[C@@H]1c1ccc(NC2CCOCC2)cc1 [Compound 94, (2R,3S,4aR,7aR)-N-(4-(dimethylamino)phenyl)-1-(2-fluoro-6-methylbenzoyl)-2-(4-((tetrahydro-2H-pyran-4-yl)amino)phenyl)octahydro-1H-cyclopenta[b]pyridine-3-carboxamide]
[1]
  IC50: < 50 nM
[2]
  IC50: 50 to 500 nM
[3]
  IC50: 2000 to 10000 nM

## Cc1cccc(F)c1C(=O)N1[C@@H]2CCC[C@@H]2C[C@H](C(=O)Nc2ccc3[nH]ncc3c2)[C@@H]1c1ccc(NC2CCOCC2)cc1 [Compound 96, (2R,3S,4aR,7aR)-1-(2-fluoro-6-methylbenzoyl)-N-(1H-indazol-5-yl)-2-(4-((tetrahydro-2H-pyran-4-yl)amino)phenyl)octahydro-1H-cyclopenta[b]pyridine-3-carboxamide]
[1]
  IC50: < 50 nM
[2]
  IC50: 50 to 500 nM
[3]
  IC50: 2000 to 10000 nM

## Cc1cccc(F)c1C(=O)N1[C@@H]2CCC[C@@H]2C[C@H](C(=O)Nc2ccc3c(ccn3C)c2)[C@@H]1c1ccc(NC2CCOCC2)cc1 [Compound 98, (2R,3S,4aR,7aR)-1-(2-fluoro-6-methylbenzoyl)-N-(1-methyl-1H-indol-5-yl)-2-(4-((tetrahydro-2H-pyran-4-yl)amino)phenyl)octahydro-1H-cyclopenta[b]pyridine-3-carboxamide]
[1]
  IC50: < 50 nM
[2]
  IC50: < 50 nM
[3]
  IC50: 500 to 2000 nM

## Cc1ccc(NC(=O)[C@H]2C[C@H]3COC[C@H]3N(C(=O)c3c(C)cccc3F)[C@H]2c2ccc(NC3CCCC3)cc2)cc1C(F)(F)F [Compound 119, (2R,3S,4aR,7aS)-2-(4-(cyclopentylamino)phenyl)-1-(2-fluoro-6-methylbenzoyl)-N-(4-methyl-3-(trifluoromethyl)phenyl)octahydrofuro[3,4-b]pyridine-3-carboxamide]
[1]
  IC50: < 50 nM
[2]
  IC50: < 50 nM
[3]
  IC50: 50 to 500 nM

## Cc1cccc(F)c1C(=O)N1[C@@H]2COC[C@@H]2C[C@H](C(=O)Nc2ccc(N(C)C)cc2)[C@@H]1c1ccc(NC2CCCC2)cc1 [Compound 124, (2R,3S,4aR,7aS)-2-(4-(cyclopentylamino)phenyl)-N-(4-(dimethylamino)phenyl)-1-(2-fluoro-6-methylbenzoyl)octahydrofuro[3,4-b]pyridine-3-carboxamide]
[1]
  IC50: 50 to 500 nM
[2]
  IC50: 50 to 500 nM
[3]
  IC50: 2000 to 10000 nM

## Cc1cccc(F)c1C(=O)N1[C@@H]2COC[C@@H]2C[C@H](C(=O)Nc2ccc3c(cnn3C)c2)[C@@H]1c1ccc(NC2CCCC2)cc1 [Compound 126, (2R,3S,4aR,7aS)-2-(4-(cyclopentylamino)phenyl)-1-(2-fluoro-6-methylbenzoyl)-N-(1-methyl-1H-indazol-5-yl)octahydrofuro[3,4-b]pyridine-3-carboxamide]
[1]
  IC50: < 50 nM
[2]
  IC50: < 50 nM
[3]
  IC50: 2000 to 10000 nM

## Cc1cccc(F)c1C(=O)N1[C@@H]2COC[C@@H]2C[C@H](C(=O)Nc2ccc3[nH]ncc3c2)[C@@H]1c1ccc(NC2CCCC2)cc1 [Compound 138, (2R,3S,4aR,7aS)-2-(4-(cyclopentylamino)phenyl)-1-(2-fluoro-6-methylbenzoyl)-N-(1H-indazol-5-yl)octahydrofuro[3,4-b]pyridine-3-carboxamide]
[1]
  IC50: 50 to 500 nM
[2]
  IC50: 500 to 2000 nM
[3]
  IC50: 2000 to 10000 nM

## Cc1cccc(F)c1C(=O)N1[C@@H]2COC[C@@H]2C[C@H](C(=O)Nc2ccc3c(ccn3C)c2)[C@@H]1c1ccc(NC2CCCC2)cc1 [Compound 139, (2R,3S,4aR,7aS)-2-(4-(cyclopentylamino)phenyl)-1-(2-fluoro-6-methylbenzoyl)-N-(1-methyl-1H-indol-5-yl)octahydrofuro[3,4-b]pyridine-3-carboxamide]
[1]
  IC50: < 50 nM
[2]
  IC50: 50 to 500 nM
[3]
  IC50: 2000 to 10000 nM

## Cc1ccc(NC(=O)[C@H]2CCCN(c3ncnc4cnccc34)[C@H]2c2ccc(NC3CCCC3)cc2)cc1C(F)(F)F [Compound 162, (2R,3S)-2-(4-(cyclopentylamino)phenyl)-N-(4-methyl-3-(trifluoromethyl)phenyl)-1-(pyrido[3,4-d]pyrimidin-4-yl)piperidine-3-carboxamide]
[1]
  IC50: 50 to 500 nM
[2]
  IC50: 500 to 2000 nM
[3]
  IC50: 2000 to 10000 nM

## Cc1cccc(F)c1C(=O)N1CCC[C@H](c2nc3ccc(C(C)(C)C)cc3[nH]2)[C@@H]1c1ccc(NC2CCCC2)cc1 [Compound 180, ((2R,3S)-3-(6-(tert-butyl)-1H-benzo[d]imidazol-2-yl)-2-(4-(cyclopentylamino)phenyl)piperidin-1-yl)(2-fluoro-6-methylphenyl)methanone]
[1]
  IC50: 2000 to 5000 nM
[2]
  IC50: < 50 nM
[3]
  IC50: 2000 to 10000 nM
